Experimental data as given in PubChem BioAssay (NCI).
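Interpolation was linear, between the two tested concentrations surrounding the appropriate level; five concentrations were tested over 48 hours in 96-well plates. At the TGI there is no net growth.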

Experiments:
Assay in all cases: DTP human tumour cell line panel, 48 h
[1] = system: SR leukemia
[2] = system: NCI-H522 lung
[3] = system: LOX IMVI melanoma
[4] = system: MDA-MB-231 breast
[5] = system: HOP-62 NSCLC
[6] = system: CAKI-1 renal
[7] = system: NCI-H226 lung
[8] = system: KM12 colon
[9] = system: SF-539 CNS
[10] = system: SF-268 CNS
[11] = system: SK-MEL-28 melanoma
[12] = system: NCI-H460 lung
[13] = system: NCI-H23 lung
[14] = system: SN12C renal
[15] = system: HCC-2998 colon
[16] = system: SK-OV-3 ovarian
[17] = system: MOLT-4 leukemia
[18] = system: MDA-N

Row | Compound | TGI [1] | TGI [2] | TGI [3] | TGI [4] | TGI [5] | TGI [6] | TGI [7] | TGI [8] | TGI [9] | TGI [10] | TGI [11] | TGI [12] | TGI [13] | TGI [14] | TGI [15] | TGI [16] | TGI [17] | TGI [18]
1 | O=C(C(Cl)=C(Nc1ccccc1)Nc1ccccc1)C(Cl)Cl | 49.4 µM | 37.4 µM | 30.3 µM | 91.2 µM | 69.7 µM | 45 µM | 93.6 µM | > 100 µM | > 100 µM | 76.7 µM | > 100 µM | > 100 µM | 93.2 µM | 79.7 µM | 37.3 µM | 94.6 µM | 45.1 µM | 
2 | C[C@H]1C(=O)C2=C[C@H]1CCC(=O)[C@]1(C)CCCC(C)(C)[C@H]1C[C@H]2O | 61.3 µM | 20.6 µM | 35.4 µM | 20.2 µM | > 100 µM | > 100 µM | 84.3 µM | 52 µM | 28.8 µM | 64 µM | > 100 µM | 58.9 µM | 57.7 µM | 94.2 µM |  | > 100 µM | > 100 µM | > 100 µM
3 | CN(C)/C=C/c1ccnc2c1C(=O)c1ccccc1C2=O |  | 24.2 µM | 20.7 µM | > 89 µM | 62.6 µM | 50.8 µM | > 52.7 µM | > 64.2 µM | 39.5 µM | > 69 µM | 5.95 µM | 7.13 µM | 7.17 µM | 19.8 µM | 22.6 µM | > 100 µM | > 64.1 µM | 3.03 µM
4 | CC(C)Oc1c(O)c2c3c(oc(=O)n3C=CC2c2ccccc2F)c1OC(C)C (configuration not stated) | 46.1 µM | > 100 µM | 33.1 µM | > 100 µM | > 100 µM | > 100 µM | > 100 µM | > 100 µM | 52.6 µM | > 100 µM | > 100 µM | > 100 µM | > 100 µM | > 100 µM |  | > 100 µM | 59.3 µM | > 100 µM
5 | COCN1C(=O)[C@@H]2C[C@@H](OC/C=C/CBr)CN2C(=O)c2ccccc21 |  | 25.9 µM | 13.1 µM | 55.1 µM | 54.6 µM | 38.7 µM | 29.9 µM | 63.5 µM | 40.8 µM | 83.4 µM | 45.4 µM |  | 81.5 µM | 33.3 µM |  | 88.5 µM | > 100 µM | 40.3 µM
6 | Cc1[nH]c(=O)nc2c1C(=O)N(C(C)C)C(NC(C)C)S2 (configuration not stated) |  | > 100 µM | > 100 µM | > 100 µM | > 100 µM | > 100 µM | > 100 µM | > 100 µM | > 100 µM |  | > 100 µM |  | > 100 µM | > 100 µM | > 100 µM | > 100 µM | > 100 µM | > 100 µM
7 | COc1cc(NS(C)(=O)=O)ccc1N1Cc2cnc3ccc4[nH]ccc1c4c23 |  | > 100 µM | 41.6 µM | 92.4 µM | > 100 µM | > 100 µM | 93.5 µM | > 100 µM |  | 75.2 µM | > 100 µM | 43.8 µM | > 100 µM | 66.6 µM |  |  | 62.5 µM | > 100 µM
